These results are taken from paper PMC11677692, “Analysis of Thiodiphenol in Rat Urine as a Biomarker of Exposure to Temephos” (Journal of Xenobiotics, 2024).

Data set [1] in a line: Urinary excretion kinetics of temephos metabolites after a single oral dose of temephos. Type of data set: in vivo, adult male Wistar rats. The conditions noted are these: for Tmax / k el / half-life: male, Wistar, rat, po; for Tmax / k el / half-life / parent compound in urine: 300 mg/kg; for parent compound in urine: urine samples with and without enzyme hydrolysis, single oral dose 300 mg/kg. How it is done:
Animals were individually housed in acrylic metabolism cages for the collection of urine for 8:16 h cycles (inside and outside the cage) for their adaptation during 8 d before treatment. Animals were orally administered with a single dose of temephos (300 mg/kg) emulsified with saline solution (0.9% NaCl). Urine was collected at intervals of 0–8, 8–16, 16–24, 24–48, 60–72, 84–96, 108–120, 132–144, 156–168, 228–240, and 324–336 h. Urine samples were collected and immediately centrifuged at 1600× g for 5 min at 4 °C (Eppendorf 5804R, Hamburg, Germany) and stored at −20 °C until processed for analysis.
(§1) Temephos urinary metabolites were enzymatically deconjugated, according to Cruz-Hurtado et al., with some modifications. Briefly, 200 µL of urine and 2000 IU of β-glucuronidase/sulfatase were added to a 0.5 M sodium acetate buffer at pH 5 to reach a final volume of 1 mL. The mixture was incubated at 50 °C in a water bath for an hour. To determine the optimal concentration of deconjugated temephos metabolites in the enzymatic hydrolysis assay, the concentration of β-glucuronidase/sulfatase was assessed from 250 to 4000 IU/mL. The enzymatic reaction was stopped by adding 10 mL of methylene chloride and cooling at room temperature; the mixture was vortexed for 1 min and then centrifuged at 1600× g for 15 min at room temperature. The organic phase was collected, and another residue extraction was performed using 10 mL of diethyl ether. Both supernatants were pooled and dried using anhydrous sodium sulfate. The solvent evaporated under a nitrogen current. The extracts were stored at −20 °C until analysis by HPLC-DAD. Extracts were dissolved in 200 µL of acetonitrile immediately before analysis. Urinary levels of temephos metabolites were adjusted by creatinine, which was determined using a commercial kit from Randox (CR510, Randox Laboratories Ltd., Crumlin, UK).
Temephos and its metabolites were analyzed by injecting urinary extracts into a liquid chromatograph equipped with a quaternary pump, autosampler, degasser, and UV-Vis Diode-Array detector (Agilent 1200, Agilent Technologies, Palo Alto, CA, USA). A ZORBAX Eclipse XDB C-18 column (4.6 × 150 mm, 5 µm) was used (Agilent Technologies, Deerfield, IL, USA). The detector wavelength was set at 254 nm, the reference wavelength was 550 nm, and the mobile phase was modified from Verdín-Betancourt et al.; it consisted of methanol (A), acetonitrile (B), and water (C), with initial solvent conditions of 27% A, 8% B, and 65% C at a rate of 1 mL/min at 25 °C. After injecting the sample (with different volumes), a 2.5 min linear gradient change was applied to achieve 23.5% A, 12.5% B, and 64% C, which was maintained for 1 min, followed by a second 2.5 min linear gradient change to 18% A, 18% B, and 64% C. Afterwards, another 4 min linear gradient change was applied to reach 20% A, 30% B, and 50% C. This condition was maintained for 2 min. Then, a fourth gradient change was applied, achieving 70% A, 25% B, and 5% C. In the end, the initial conditions were re-established to 27% A, 8% B, and 65% C. The column was equilibrated for 2 min before the next injection. The identity of temephos and its metabolites were confirmed by their retention time (tret) and UV spectra of standards. The concentrations of temephos, TDP, TDP-SO, and BPS were determined using calibration graphs of each compound. The concentration of the non-identified metabolite (NIM) was estimated using the Tem-dox-SO calibration graph due to their similarity in the UV spectrum and tret.
The urinary elimination constant (KElim-U) to determine the half-life of elimination (t1/2 Elim-U) for TDP, BPS, and NIMs was estimated from the slope of the curves in the Rate of Excretion plots (log-linear Rate of excretion (ΔU/Δt) versus mid-point time). […]

Data set [2] can be described thus: Enzymatic hydrolysis (β-glucuronidase/sulfatase) of urine of temephos-treated rats, HPLC-DAD. Type of data set: in vitro ADME, rat. The conditions noted are these: 50 °C, 1 h, vs non-hydrolyzed urine. How it is done:
as §1, with “Both supernatants were pooled and dried using anhydrous sodium sulfate. The solvent evaporated under a nitrogen current. The extracts were stored at −20 °C until analysis by HPLC-DAD. Extracts were dissolved in 200 µL of acetonitrile immediately before analysis.” left out
Temephos and its metabolites were analyzed by injecting urinary extracts into a liquid chromatograph equipped with a quaternary pump, autosampler, degasser, and UV-Vis Diode-Array detector (Agilent 1200, Agilent Technologies, Palo Alto, CA, USA). […] The concentrations of temephos, TDP, TDP-SO, and BPS were determined using calibration graphs of each compound. […]

The mark [3] stands for this setting: urine, male adult rats, single oral dose of temephos 300 mg/kg.
The mark [4] stands for this setting: urine, urine, male adult rats, single oral dose of temephos 300 mg/kg, read-out: KElim-U 2nd Phase (converted).
Setting [5] is: urine, urine, male adult rats, single oral dose of temephos 300 mg/kg, read-out: t1/2 Elim-U 2nd Phase (converted).
Where [6] appears, read: urine, rats, single oral dose of temephos 300 mg/kg.

“And” between values parts separate entries of the source, which are not always exact repeats. Identical values can stand only once. Like-named read-outs stand apart in the source and are kept apart here.

As usually defined, the Tmax is the time at which the peak concentration occurs. With `O=S(=O)(c1ccc(O)cc1)c1ccc(O)cc1` [BPS, 4,4′-sulfonyldiphenol], in data set [1] (setting [3]), the time to peak (Tmax) came to 9 ± 6 h, the “AUC0–∞” value amounted to 2455 ± 974 nmol-h/mg Creatinine and the Cmax-U is given as 41 ± 16 nmol/mg Creatinine. For the same compound, the k el in data set [1] (setting [4]) was 1.09e-05 s⁻¹. Besides, the half-life in data set [1] (setting [5]) is 17.7 h. The half-life in data set [1] (urine, urine, rats, single oral dose of temephos 300 mg/kg, read-out: t1/2 Elim-U (monophasic decline, one-compartment model) (converted)) is 17.7 h. For the same compound, in data set [1] (setting [6]), the “time after which detection in urine was difficult” value was found to be 48 h and the “time detected in urine after dosing” value worked out at 40 h. Further, the “increase of level in urine extracts after enzyme hydrolysis” value in data set [2] is “about 2 fold”.
With `Oc1ccc(Sc2ccc(O)cc2)cc1` [TDP, 4,4′-thiodiphenol], in data set [1] (setting [3]), the Tmax came to 9 h; the “AUC0–∞” value is listed as 297,540 ± 76,013 nmol-h/mg Creatinine; the Cmax-U is 366 nmol/mg Creatinine and 366 ± 115 nmol/mg Creatinine; the tmax-U worked out at 10 ± 4 h. In data set [1] (urine, urine, male adult rats, single oral dose of temephos 300 mg/kg, read-out: KElim-U 1st Phase (converted)), the k el was 6.93e-06 s⁻¹. Further, the k el in data set [1] (setting [4]) was 7.08e-07 s⁻¹. The half-life in data set [1] (urine, urine, male adult rats, single oral dose of temephos 300 mg/kg, read-out: t1/2 Elim-U 1st Phase (converted)) is 27.8 h. The half-life in data set [1] (setting [5]) was 272 h. In data set [1] (setting [6]), the “Cmax fold higher than that of BPS” value was 8.9 fold, the “Cmax fold higher than that of NIMs” value is recorded as 4.2 fold and the “time detected in urine after dosing” value is “up to 320 h”. For the same compound, in data set [2], the “increase of level in urine extracts after enzyme hydrolysis” value is “more than 60 fold”.
In the case of `COP(=S)(OC)Oc1ccc(Sc2ccc(OP(=S)(OC)OC)cc2)cc1` [Temephos, temephos], the entries for the “parent compound in urine” value in data set [1] and in data set [1] (listed as temephos) were “practically undetectable” and “only traces”, respectively.
